# Measurements taken from patent US9895346B2, “Applications of substituent benzyloxy group containing ether compounds for preparing antitumor drugs” (Sinochem Corporation, priority 2013, dated 2018).
# Experiments:
# Assay type in all cases: cell-based, human
# [1] = test system: lung cancer cell line A549; test: In vitro cell inhibition assay (crystal violet), lung cancer A549
# Text: (§1) In vitro Cell inhibition assay is as follows:
# (§2) The human cancer cell lines used for this assay were bladder cancer J82, T24, prostate cancer LNCap, PC-3, lung cancer A549, H157, H460, H520, colon cancer HCT8, HCT116, RkO, and leukemia HL-60, etc.
# (§3) In vitro cell culture technology was selected for the determination of inhibition rate bladder cancer cell lines J82 and T24, prostate cancer cell lines LNCap and PC-3, lung cancer cell lines A549, H157, H460 and H520. 1000 to 3000 cells were inoculated to 24-well plate, followed by addition of 1 mL culture medium well known to researchers in this field to each well, the cells were cultured in 5% incubator for 24 hours at 37° C., then the different concentration compounds and controls were added to each well. It should be noted that the added volume is not more than 0.5% of total volume. After completion of addition, the cells continued being cultured in incubator for one week, the culture medium was removed and washed by cold PBS of 1 mL once, and then fixed for 10 minutes at room temperature with 1% formalin, followed by wash with PBS of 1 mL. After fixation, stain was carried out with 0.1% crystal violet for 30 minutes. 0.1% crystal violet was recycled. The stained cells were washed gently with deionized water, dried at room temperature and kepted. The inhibition rate was calculated according to the foiling equation. The controls are Selumetinib (AZD6244), Gefitinib, Cisplatin. Inhibition rate=number of left cells each treatment/number of left cells of untreated control×100%
# [2] = test system: lung cancer cell line H460; test: In vitro cell inhibition assay (crystal violet), lung cancer H460
# Text: as §1, §2, §3
# [3] = test system: lung cancer cell line H520; test: In vitro cell inhibition assay (crystal violet), lung cancer H520
# Text: as §1, §2, §3
SMILES,"Inhibition rate on human cancer cells ([1]; A549, 1.0 μM)","Inhibition rate on human cancer cells ([1]; A549, 2.5 μM)","Inhibition rate on human cancer cells ([1]; A549, 5.0 μM)","Inhibition rate on human cancer cells ([2]; H460, 1.0 μM)","Inhibition rate on human cancer cells ([2]; H460, 2.5 μM)","Inhibition rate on human cancer cells ([2]; H460, 5.0 μM)","Inhibition rate on human cancer cells ([3]; H520, 1.0 μM)","Inhibition rate on human cancer cells ([3]; H520, 2.5 μM)","Inhibition rate on human cancer cells ([3]; H520, 5.0 μM)","Inhibition rate on human cancer cells ([3]; H520, 0.25 μM)","Inhibition rate on human cancer cells ([3]; H520, 0.5 μM)","Inhibition rate on human cancer cells ([1]; A549, 0.5 μM)","Inhibition rate on human cancer cells ([2]; H460, 0.25 μM)","Inhibition rate on human cancer cells ([2]; H460, 0.5 μM)"
COC=C(C(=O)OC)c1ccccc1COc1ccc2c(C)c(Cl)c(=O)oc2c1 [28-12],80%,95%,100%,75%,90%,95%,50%,100%,100%,,,,,
COC=C(C(=O)OC)c1ccccc1COc1ccc2c(-c3ccc(Cl)cc3)cc(=O)oc2c1 [28-29],,,95%,70%,90%,95%,70%,70%,100%,30%,40%,,,
CCc1cc(=O)oc2cc(OCc3ccccc3C(=COC)C(=O)OC)ccc12 [28-33],80%,95%,99%,90%,95%,95%,,90%,100%,,,,,
CCCc1cc(=O)oc2cc(OCc3ccccc3C(=COC)C(=O)OC)ccc12 [28-34],90%,95%,100%,93%,95%,95%,99%,100%,100%,,70%,,,
COC=C(C(=O)OC)c1ccccc1COc1ccc2c(-c3ccc(C(F)(F)F)cc3)cc(=O)oc2c1 [28-41],,,,,75%,85%,,,70%,,,,,
COC=C(C(=O)OC)c1ccccc1COc1ccc2c(-c3ccccc3)cc(=O)oc2c1 [28-52],95%,100%,100%,100%,100%,100%,100%,100%,100%,70%,100%,90%,60%,90%
CCCCCCc1c(C)c2ccc(OCc3ccccc3C(=COC)C(=O)OC)cc2oc1=O [28-75],,,90%,70%,90%,95%,,80%,100%,,,,,
COC=C(C(=O)OC)c1ccccc1COc1ccc2c3c(c(=O)oc2c1C)CCC3 [28-126],,85%,90%,,90%,95%,70%,90%,95%,,,,,
COC=C(C(=O)OC)c1ccccc1COc1ccc2c(-c3ccccc3Cl)cc(=O)oc2c1 [28-132],,,90%,,,,,,,,,,,
COC=C(C(=O)OC)c1ccccc1COc1ccc2c(-c3cccc(Cl)c3)cc(=O)oc2c1 [28-133],,100%,100%,,,,,,,,,,,
COC=C(C(=O)OC)c1ccccc1COc1ccc2c(-c3ccc(Br)cc3)cc(=O)oc2c1 [28-134],,100%,100%,,,,,,,,,,,
COC=C(C(=O)OC)c1ccccc1COc1ccc2c(-c3ccc(C#N)cc3)cc(=O)oc2c1 [28-135],,,80%,,,,,,,,,,,
